Common to all, as to format: functional
In assay [1] the test system is Pomacea canaliculata. In words: Molluscicidal activity against Pomacea canaliculata.
Assay [2] has as its system Pomacea canaliculata. In words: Molluscicidal activity against Pomacea canaliculata assessed as mortality at 200 uM after 24 hr.
The test system of assay [3] is Aedes aegypti. Put plainly: Insecticidal activity against Aedes aegypti assessed as insect mortality at 2 ppm.
In assay [4] the test system is Pomacea canaliculata. In words: Molluscicidal activity against Pomacea canaliculata assessed as mortality at 75 uM after 24 hr.
The next assay concerns Planorbella trivolvis. In words: Molluscicidal activity against Planorbella trivolvis.
The test system of assay [5] is Aedes aegypti. Put plainly: Insecticidal activity against Aedes aegypti assessed as lethal compound dose per mosquito measured after 24 hr post topical application.

For `CC1OC(C)OC(C)OC(C)O1` (stereo unspecified) [METALDEHYDE], the LC50 – broadly, the concentration that kills 50% of the test population – in the assay with Pomacea canaliculata [1] turned out to be 30 µM. In the assay with Pomacea canaliculata [2], the mortality – broadly, the share of the test organisms that died – at 200 µM was 100%.
Turning to `CC(C)NC(=O)/C=C/C=C/CCCCCCc1ccc2c(c1)OCO2`, the mortality at 2 ppm in the assay with Aedes aegypti [3] is 80%.
In the case of `CC1=CC(=O)C2C3C1C2(C)CCCC3(C)C` (stereo unspecified) [VULGARONE B], the LC50 with Pomacea canaliculata [1] is 30 µM. Further, the mortality at 75 µM in the assay with Pomacea canaliculata [4] amounted to 100%.
As to `CC1(C)CC[C@]2(C(=O)O)CC[C@]3(C)C(=CC[C@@H]4[C@@]5(C)CC[C@H](O[C@@H]6O[C@H](CO)[C@@H](O)[C@H](O)[C@H]6O)[C@@](C)(CO)[C@@H]5CC[C@]43C)[C@@H]2C1` [Hederagenin-3-O-beta-D-glucopyranoside], the LC50 with Planorbella trivolvis came out at 30 µM.
`C/C=C\C#CC#C/C=C\C(=O)OC` [(2Z,8Z)-MATRICARIA ACID METHYL ESTER] displayed an LC50 with Planorbella trivolvis of 24 µM. The LC50 values of the last two compounds are within 1.5-fold of each other.
As for `C=CCCCCCCCCC(=O)N1CCCCC1CC` (stereo unspecified) [2-ethyl-1-undec-10-enoyl-piperidine], the LD50 with Aedes aegypti [5] came to 0.8 µg.
On the same count and under the same terms, for `O=C(/C=C/C=C/c1ccc2c(c1)OCO2)N1CCCCC1` [PIPERINE] the value was 8.13 µg.
On to `O=C(/C=C/C=C/CCCCCCc1ccc2c(c1)OCO2)N1CCCCC1`, for which the mortality at 2 ppm in the assay on Aedes aegypti [3] was 20%.
For `COC(=O)N(C(=O)N1CO[C@@]2(C(=O)OC)Cc3cc(Cl)ccc3C2=N1)c1ccc(OC(F)(F)F)cc1` [INDOXACARB], the mortality at 2 ppm in the assay on Aedes aegypti [3] was found to be 40%.

The values are drawn from ChEMBL document CHEMBL3045360, “Natural toxins for use in pest management” (2010).
